{
  "source": "patent US20230257385A1",
  "about": "“SALT AND SOLID FORMS OF TABERNANTHALOG” (priority 2021, published 2023)",
  "key": {"[1]": {"experiment": "Suspension equilibration of the monofumarate salt at 20° C. and 40° C. (Experiment References 6, 7, 8)", "assay_type": "physicochemical", "conditions": "suspension equilibration at 20° C.", "procedure": "Separate portions of the tabernanthalog monofumarate salt (Sample Reference 1, Pattern #1, ca 50 mg, 1.0 wt.) were charged to separate vessels. The appropriate solvents (e.g. 250 μl, 5.0 vol), were charged to the vessels and the mixtures were stirred for several days at their relevant temperatures e.g. 20 and 40° C. After this time the products were cooled, isolated by centrifugation, analyzed as wet pellet (suffix-1) by XRPD and dried under reduced pressure at 40° C. (suffix-2) and re-analyzed by XRPD and companion analyses for evidence of alternative crystalline forms.\nThe tabernanthalog monofumarate salt (Sample Reference 1, Pattern #1) was subjected to this technique at ambient temperature (20° C., Table 35) and at elevated temperature (40° C., Table 36), in a diverse range of solvents. The primary aim is to identify a stable, anhydrous monotropic form that is suitable for future development.\nThe tabernanthalog monofumarate salt (Sample Reference 1, Pattern #1, 1.0 g, 1 wt) was suspended in water (5 ml, 5 vol) at 20° C. for 10 days (the suspension was sub-sampled to monitor the conversion to Pattern #6a by XRPD). The suspension was filtered through a sintered funnel and the filter cake was dried under nitrogen flow for ca. 24 h. Sample 8-A4 (Experiment Reference 8-Sample Reference A4) was collected as a brown solid (560.6 mg, 56% yield uncorr.). Yield was not corrected for impurities, solvents, etc."}, "[2]": {"experiment": "Suspension equilibration of sorbate salt at 20 and 40° C. (Example 10, Experiments 3, 4, 9)", "assay_type": "physicochemical", "conditions": "one solvent per sample; for Observations (t = 1 d @ 40° C.) / Observations (t = 10 d @ 40° C.): sorbate salt Form A in 5 vol solvent; for Observations (t = 0 @ 40° C.): sorbate salt Form A, ca. 50 mg in 5 vol solvent; for XRPD (IPC, 6 d, wet) / XRPD (post oven dried): suspension equilibration at 40° C.; for XRPD (IPC, 6 d, wet): moist pellet after 6 d; for XRPD (post oven dried): pellet after oven drying", "procedure": "The purpose of this panel is to determine if Form A evolves into a supra-ordinate form. The companion panel at 40° C. set-point is in place to detect enantiotropic behaviour via different relative proportions in different solvents. XRPD data of the moist pellets obtained from the suspension equilibration study at 20° C.\nThe relevant solvent (5 vol) was added to the appropriate vial and the suspensions were stirred and warmed to the predetermined temperature with stirring. […]"}},
  "data": [
    {"smiles": "COc1ccc2c3c([nH]c2c1)CCN(C)CC3.O=C(O)/C=C/C(=O)O", "note": "[Tabernanthalog•Monofumarate (CAT8931)]", "values": [
      {"measurement": "Observations (t = 0 @ 20° C.)", "setting": "[1]; 6-A, Acetone", "value": "Suspension"},
      {"measurement": "Observations (t = 1 d @ 20° C.)", "setting": "[1]; 6-A, Acetone", "value": "Suspension"},
      {"measurement": "Observations t = 7 d @ 20° C.", "setting": "[1]; 6-A, Acetone", "value": "Suspension"},
      {"measurement": "Observations (t = 0 @ 20° C.)", "setting": "[1]; 6-B, Acetonitrile", "value": "Suspension"},
      {"measurement": "Observations (t = 1 d @ 20° C.)", "setting": "[1]; 6-B, Acetonitrile", "value": "Suspension"},
      {"measurement": "Observations t = 7 d @ 20° C.", "setting": "[1]; 6-B, Acetonitrile", "value": "Suspension"},
      {"measurement": "Observations (t = 0 @ 20° C.)", "setting": "[1]; 6-C, tert-Butylmethyl ether", "value": "Suspension"},
      {"measurement": "Observations (t = 1 d @ 20° C.)", "setting": "[1]; 6-C, tert-Butylmethyl ether", "value": "Suspension"},
      {"measurement": "Observations t = 7 d @ 20° C.", "setting": "[1]; 6-C, tert-Butylmethyl ether", "value": "Suspension"},
      {"measurement": "Observations (t = 0 @ 20° C.)", "setting": "[1]; 6-D, Chlorobenzene", "value": "Suspension"},
      {"measurement": "Observations (t = 1 d @ 20° C.)", "setting": "[1]; 6-D, Chlorobenzene", "value": "Suspension"},
      {"measurement": "Observations t = 7 d @ 20° C.", "setting": "[1]; 6-D, Chlorobenzene", "value": "Suspension"},
      {"measurement": "Observations (t = 0 @ 20° C.)", "setting": "[1]; 6-E, Dichloromethane", "value": "Suspension"},
      {"measurement": "Observations (t = 1 d @ 20° C.)", "setting": "[1]; 6-E, Dichloromethane", "value": "Suspension"},
      {"measurement": "Observations t = 7 d @ 20° C.", "setting": "[1]; 6-E, Dichloromethane", "value": "Suspension"},
      {"measurement": "Observations (t = 0 @ 20° C.)", "setting": "[1]; 6-F, Ethanol", "value": "Suspension"},
      {"measurement": "Observations (t = 1 d @ 20° C.)", "setting": "[1]; 6-F, Ethanol", "value": "Suspension"},
      {"measurement": "Observations t = 7 d @ 20° C.", "setting": "[1]; 6-F, Ethanol", "value": "Suspension"},
      {"measurement": "Observations (t = 0 @ 20° C.)", "setting": "[1]; 6-G, Ethyl acetate", "value": "Suspension"},
      {"measurement": "Observations (t = 1 d @ 20° C.)", "setting": "[1]; 6-G, Ethyl acetate", "value": "Suspension"},
      {"measurement": "Observations t = 7 d @ 20° C.", "setting": "[1]; 6-G, Ethyl acetate", "value": "Suspension"},
      {"measurement": "Observations (t = 0 @ 20° C.)", "setting": "[1]; 6-H, Ethyl formate", "value": "Suspension"},
      {"measurement": "Observations (t = 1 d @ 20° C.)", "setting": "[1]; 6-H, Ethyl formate", "value": "Suspension"},
      {"measurement": "Observations t = 7 d @ 20° C.", "setting": "[1]; 6-H, Ethyl formate", "value": "Suspension"},
      {"measurement": "Observations (t = 0 @ 20° C.)", "setting": "[1]; 6-I, Heptane", "value": "Suspension"},
      {"measurement": "Observations (t = 1 d @ 20° C.)", "setting": "[1]; 6-I, Heptane", "value": "Suspension"},
      {"measurement": "Observations t = 7 d @ 20° C.", "setting": "[1]; 6-I, Heptane", "value": "Suspension"},
      {"measurement": "Observations (t = 0 @ 20° C.)", "setting": "[1]; 6-J, Isopropyl acetate", "value": "Suspension"},
      {"measurement": "Observations (t = 1 d @ 20° C.)", "setting": "[1]; 6-J, Isopropyl acetate", "value": "Suspension"},
      {"measurement": "Observations t = 7 d @ 20° C.", "setting": "[1]; 6-J, Isopropyl acetate", "value": "Suspension"},
      {"measurement": "Observations (t = 0 @ 20° C.)", "setting": "[1]; 6-K, Methanol", "value": "Suspension"},
      {"measurement": "Observations (t = 1 d @ 20° C.)", "setting": "[1]; 6-K, Methanol", "value": "Suspension"},
      {"measurement": "Observations t = 7 d @ 20° C.", "setting": "[1]; 6-K, Methanol", "value": "Suspension"},
      {"measurement": "Observations (t = 0 @ 20° C.)", "setting": "[1]; 6-L, Methyl acetate", "value": "Suspension"},
      {"measurement": "Observations (t = 1 d @ 20° C.)", "setting": "[1]; 6-L, Methyl acetate", "value": "Suspension"},
      {"measurement": "Observations t = 7 d @ 20° C.", "setting": "[1]; 6-L, Methyl acetate", "value": "Suspension"},
      {"measurement": "Observations (t = 0 @ 20° C.)", "setting": "[1]; 6-M, Methylethyl ketone", "value": "Suspension"},
      {"measurement": "Observations (t = 1 d @ 20° C.)", "setting": "[1]; 6-M, Methylethyl ketone", "value": "Suspension"},
      {"measurement": "Observations t = 7 d @ 20° C.", "setting": "[1]; 6-M, Methylethyl ketone", "value": "Suspension"},
      {"measurement": "Observations (t = 0 @ 20° C.)", "setting": "[1]; 6-N, 2-Methyl THF", "value": "Suspension"},
      {"measurement": "Observations (t = 1 d @ 20° C.)", "setting": "[1]; 6-N, 2-Methyl THF", "value": "Suspension"},
      {"measurement": "Observations t = 7 d @ 20° C.", "setting": "[1]; 6-N, 2-Methyl THF", "value": "Suspension"},
      {"measurement": "Observations (t = 0 @ 20° C.)", "setting": "[1]; 6-O, Nitromethane", "value": "Suspension"},
      {"measurement": "Observations (t = 1 d @ 20° C.)", "setting": "[1]; 6-O, Nitromethane", "value": "Suspension"},
      {"measurement": "Observations t = 7 d @ 20° C.", "setting": "[1]; 6-O, Nitromethane", "value": "Suspension"},
      {"measurement": "Observations (t = 0 @ 20° C.)", "setting": "[1]; 6-P, 2-Propanol", "value": "Suspension"},
      {"measurement": "Observations (t = 1 d @ 20° C.)", "setting": "[1]; 6-P, 2-Propanol", "value": "Suspension"},
      {"measurement": "Observations t = 7 d @ 20° C.", "setting": "[1]; 6-P, 2-Propanol", "value": "Suspension"},
      {"measurement": "Observations (t = 0 @ 20° C.)", "setting": "[1]; 6-Q, Tetrahydrofuran", "value": "Suspension"},
      {"measurement": "Observations (t = 1 d @ 20° C.)", "setting": "[1]; 6-Q, Tetrahydrofuran", "value": "Suspension"},
      {"measurement": "Observations t = 7 d @ 20° C.", "setting": "[1]; 6-Q, Tetrahydrofuran", "value": "Suspension"},
      {"measurement": "Observations (t = 0 @ 20° C.)", "setting": "[1]; 6-R, Toluene", "value": "Suspension"},
      {"measurement": "Observations (t = 1 d @ 20° C.)", "setting": "[1]; 6-R, Toluene", "value": "Suspension"},
      {"measurement": "Observations t = 7 d @ 20° C.", "setting": "[1]; 6-R, Toluene", "value": "Suspension"},
      {"measurement": "Observations (t = 0 @ 20° C.)", "setting": "[1]; 6-S, Water", "value": "Suspension"},
      {"measurement": "Observations (t = 1 d @ 20° C.)", "setting": "[1]; 6-S, Water", "value": "Suspension"},
      {"measurement": "Observations t = 7 d @ 20° C.", "setting": "[1]; 6-S, Water", "value": "Suspension"}
    ]},
    {"smiles": "C/C=C/C=C/C(=O)O.COc1ccc2c3c([nH]c2c1)CCN(C)CC3", "note": "[Experiment 4-Sample C]", "values": [
      {"measurement": "Observations (t = 1 d @ 40° C.)", "setting": "[2]", "value": "Suspension"},
      {"measurement": "Observations (t = 10 d @ 40° C.)", "setting": "[2]", "value": "Suspension"},
      {"measurement": "Observations (t = 0 @ 40° C.)", "setting": "[2]", "value": "Suspension"},
      {"measurement": "XRPD (IPC, 6 d, wet)", "setting": "[2]", "value": "Form A"},
      {"measurement": "XRPD (post oven dried)", "setting": "[2]", "value": "Form A"}
    ]},
    {"smiles": "C/C=C/C=C/C(=O)O.COc1ccc2c3c([nH]c2c1)CCN(C)CC3", "note": "[Experiment 4-Sample Q]", "values": [
      {"measurement": "Observations (t = 1 d @ 40° C.)", "setting": "[2]", "value": "Suspension"},
      {"measurement": "Observations (t = 10 d @ 40° C.)", "setting": "[2]", "value": "Suspension"},
      {"measurement": "Observations (t = 0 @ 40° C.)", "setting": "[2]", "value": "Suspension"},
      {"measurement": "XRPD (IPC, 6 d, wet)", "setting": "[2]", "value": "Form A"},
      {"measurement": "XRPD (post oven dried)", "setting": "[2]", "value": "Form A"}
    ]},
    {"smiles": "C/C=C/C=C/C(=O)O.COc1ccc2c3c([nH]c2c1)CCN(C)CC3", "note": "[Experiment 4-Sample M]", "values": [
      {"measurement": "Observations (t = 1 d @ 40° C.)", "setting": "[2]", "value": "Suspension"},
      {"measurement": "Observations (t = 10 d @ 40° C.)", "setting": "[2]", "value": "Suspension"},
      {"measurement": "Observations (t = 0 @ 40° C.)", "setting": "[2]", "value": "Suspension"},
      {"measurement": "XRPD (IPC, 6 d, wet)", "setting": "[2]", "value": "Form A"},
      {"measurement": "XRPD (post oven dried)", "setting": "[2]", "value": "Form A"}
    ]},
    {"smiles": "CC=CC=CC(=O)O.COc1ccc2c3c([nH]c2c1)CCN(C)CC3", "note": "[Experiment 4-Sample D]", "values": [
      {"measurement": "Observations (t = 1 d @ 40° C.)", "setting": "[2]", "value": "Suspension"},
      {"measurement": "Observations (t = 10 d @ 40° C.)", "setting": "[2]", "value": "Suspension"},
      {"measurement": "Observations (t = 0 @ 40° C.)", "setting": "[2]", "value": "Suspension"},
      {"measurement": "XRPD (IPC, 6 d, wet)", "setting": "[2]", "value": "Form A"},
      {"measurement": "XRPD (post oven dried)", "setting": "[2]", "value": "Form A"}
    ]}
  ]
}
